Source: ChEMBL document CHEMBL6178014, “Discovery and Administration Optimization of Novel Selective CDK9 Inhibitor, 1-7a-B1, for Improved Pharmacokinetics and Antitumor Efficacy In Vivo” (J Med Chem, 2025)
Active and inactive are the calls of the source. The calls are words filed in the database; no cut-off is given here.

Assays:
[1] = target: CDK2/Cyclin A2 (Homo sapiens, UniProt P24941); assay: Inhibition of CDK2/cyclA2 (unknown origin) by ADP-Glo assay; format: protein-complex assay
[2] = target: CDK6/cyclin D3 (Homo sapiens, UniProt Q00534); assay: Inhibition of CDK6/cycD3 (unknown origin) by ADP-Glo assay; format: protein-complex assay
[3] = Stability in human plasma assessed as half life at 100 uM measured up to 120 mins by LC-MS/MS analysis; format: ADME, cell-free
[4] = target: CYP1A2 (Homo sapiens, UniProt P05177); assay: Inhibition of CYP1A2 in human liver microsome at 10 uM pre-incubated with compound for 10 mins in presence of NADPH-regenerating system by LC-MS/MS analysis relative to control; format: ADME; settings: liver microsomes
[5] = target: CYP2C9 (Homo sapiens, UniProt P11712); assay: Inhibition of CYP2C9 in human liver microsome at 10 uM pre-incubated with compound for 10 mins in presence of NADPH-regenerating system by LC-MS/MS analysis relative to control; format: ADME; settings: liver microsomes
[6] = target: CYP3A4 (Homo sapiens, UniProt P08684); assay: Inhibition of CYP3A4 in human liver microsome at 10 uM pre-incubated with compound for 10 mins in presence of NADPH-regenerating system by LC-MS/MS analysis relative to control; format: ADME; settings: liver microsomes
[7] = AUC (0 to infinity) in Sprague-Dawley rat at 2 mg/kg, iv measured after 24 hrs by LC-MS/MS analysis; format: ADME, organism-based; settings: in vivo
[8] = Volume of distribution in Sprague-Dawley rat at 2 mg/kg, iv measured after 24 hrs by LC-MS/MS analysis; format: ADME, organism-based; settings: in vivo
[9] = Volume of distribution in Sprague-Dawley rat at 30 mg/kg, po measured after 24 hrs by LC-MS/MS analysis; format: ADME, organism-based; settings: in vivo
[10] = Oral bioavailability in Sprague-Dawley rat at 30 mg/kg measured after 24 hrs by LC-MS/MS analysis; format: ADME, organism-based; settings: in vivo
[11] = MRT (infinity) in Sprague-Dawley rat at 30 mg/kg, po as submicron emulsion measured after 24 hrs by LC-MS/MS analysis; format: ADME, organism-based; settings: in vivo
[12] = test system: HCT-116; assay: Antitumor activity against human HCT-116 cells xenografted in female BALB/c nu-nu mouse assessed as tumor growth inhibition at 40 mg/kg, po administered once daily for 3 weeks by vernier caliper analysis; format: functional, organism-based
[13] = test system: Mus musculus; assay: In vivo inhibition of CDK9/cyclinT1 in female BALB/c nu-nu mouse xenografted with human HCT-116 cells assessed as inhibition of phosphorylation of RNA polymerase II at Ser 2 residue at 40 mg/kg, po incubated for 48 hrs by Western blot analysis; format: functional, organism-based
[14] = test system: HCT-116; assay: Antitumor activity against human HCT-116 cells xenografted in female BALB/c nu-nu mouse assessed as increase in PARP cleavage at 40 mg/kg, po incubated for 48 hrs by Western blot analysis; format: functional, organism-based
[15] = Toxicity in female BALB/c nu-nu mouse xenografted with human HCT-116 cells assessed as histopathological changes in lung at 40 mg/kg, po administered once daily for 3 weeks by H and E staining based analysis; format: organism-based; settings: in vivo, 504 h
[16] = Toxicity in female BALB/c nu-nu mouse xenografted with human HCT-116 cells assessed as histopathological changes in heart at 20 mg/kg, po as submicron emulsion administered once daily for 3 weeks by H and E staining based analysis; format: organism-based; settings: in vivo, 504 h
[17] = Toxicity in female BALB/c nu-nu mouse xenografted with human HCT-116 cells assessed as histopathological changes in lung at 20 mg/kg, po as submicron emulsion administered once daily for 3 weeks by H and E staining based analysis; format: organism-based; settings: in vivo, 504 h
[18] = test system: HCT-116; assay: Antitumor activity against human HCT-116 cells xenografted in female BALB/c nu-nu mouse assessed as downregulation of Mcl-1 mRNA expression at 40 mg/kg, po incubated for 48 hrs by qRT-PCR analysis; format: functional, organism-based
[19] = test system: HCT-116; assay: Antitumor activity against human HCT-116 cells xenografted in female BALB/c nu-nu mouse assessed as reduction in Ki67 positive cells at 40 mg/kg, po by staining based analysis; format: functional, organism-based

CDK6/cyclin D3, sequence (P30281 whole entry): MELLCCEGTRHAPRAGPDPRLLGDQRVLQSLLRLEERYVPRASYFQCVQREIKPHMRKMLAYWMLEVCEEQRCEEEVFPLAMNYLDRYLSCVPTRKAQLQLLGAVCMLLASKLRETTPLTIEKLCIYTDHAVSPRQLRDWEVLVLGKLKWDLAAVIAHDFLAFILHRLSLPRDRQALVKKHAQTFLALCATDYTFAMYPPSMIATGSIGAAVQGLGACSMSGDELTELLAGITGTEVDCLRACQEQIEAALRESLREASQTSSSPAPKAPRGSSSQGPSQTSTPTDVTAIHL
CDK6/cyclin D3, sequence (Q00534 whole entry): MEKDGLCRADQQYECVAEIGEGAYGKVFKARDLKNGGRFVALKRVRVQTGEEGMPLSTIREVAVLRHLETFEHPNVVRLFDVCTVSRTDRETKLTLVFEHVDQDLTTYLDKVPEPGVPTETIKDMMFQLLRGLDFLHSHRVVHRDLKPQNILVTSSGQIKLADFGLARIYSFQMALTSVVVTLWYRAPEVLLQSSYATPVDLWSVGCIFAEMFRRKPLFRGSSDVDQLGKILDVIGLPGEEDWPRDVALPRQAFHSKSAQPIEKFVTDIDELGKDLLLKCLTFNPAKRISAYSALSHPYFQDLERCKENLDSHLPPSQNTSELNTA
CYP1A2, sequence (P05177 whole entry): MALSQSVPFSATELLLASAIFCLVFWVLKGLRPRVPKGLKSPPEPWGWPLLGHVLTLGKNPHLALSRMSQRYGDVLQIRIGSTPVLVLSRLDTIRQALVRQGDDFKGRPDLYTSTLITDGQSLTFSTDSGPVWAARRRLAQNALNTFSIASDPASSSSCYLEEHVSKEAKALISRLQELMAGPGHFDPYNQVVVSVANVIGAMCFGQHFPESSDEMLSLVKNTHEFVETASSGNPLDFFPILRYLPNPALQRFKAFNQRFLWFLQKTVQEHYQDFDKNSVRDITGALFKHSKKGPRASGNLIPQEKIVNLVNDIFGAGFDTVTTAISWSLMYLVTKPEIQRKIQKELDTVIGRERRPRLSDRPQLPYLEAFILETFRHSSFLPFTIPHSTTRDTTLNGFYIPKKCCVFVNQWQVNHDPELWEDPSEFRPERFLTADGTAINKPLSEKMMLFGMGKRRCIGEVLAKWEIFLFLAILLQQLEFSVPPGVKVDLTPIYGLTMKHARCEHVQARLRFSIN
CYP3A4, sequence (P08684 whole entry): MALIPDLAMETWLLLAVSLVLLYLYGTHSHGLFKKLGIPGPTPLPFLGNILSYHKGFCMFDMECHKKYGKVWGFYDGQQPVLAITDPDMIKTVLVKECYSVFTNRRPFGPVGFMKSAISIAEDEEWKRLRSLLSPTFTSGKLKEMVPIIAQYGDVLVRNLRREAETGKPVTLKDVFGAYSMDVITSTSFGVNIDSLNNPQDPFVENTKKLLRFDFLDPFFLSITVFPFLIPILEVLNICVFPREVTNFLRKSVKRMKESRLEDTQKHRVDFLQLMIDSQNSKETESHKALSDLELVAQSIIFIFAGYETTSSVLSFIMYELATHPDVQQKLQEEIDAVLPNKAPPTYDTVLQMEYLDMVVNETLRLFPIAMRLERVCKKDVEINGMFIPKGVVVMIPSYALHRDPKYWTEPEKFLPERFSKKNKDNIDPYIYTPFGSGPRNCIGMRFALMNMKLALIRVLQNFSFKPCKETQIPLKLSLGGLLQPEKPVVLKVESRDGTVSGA
CYP2C9, sequence (P11712 whole entry): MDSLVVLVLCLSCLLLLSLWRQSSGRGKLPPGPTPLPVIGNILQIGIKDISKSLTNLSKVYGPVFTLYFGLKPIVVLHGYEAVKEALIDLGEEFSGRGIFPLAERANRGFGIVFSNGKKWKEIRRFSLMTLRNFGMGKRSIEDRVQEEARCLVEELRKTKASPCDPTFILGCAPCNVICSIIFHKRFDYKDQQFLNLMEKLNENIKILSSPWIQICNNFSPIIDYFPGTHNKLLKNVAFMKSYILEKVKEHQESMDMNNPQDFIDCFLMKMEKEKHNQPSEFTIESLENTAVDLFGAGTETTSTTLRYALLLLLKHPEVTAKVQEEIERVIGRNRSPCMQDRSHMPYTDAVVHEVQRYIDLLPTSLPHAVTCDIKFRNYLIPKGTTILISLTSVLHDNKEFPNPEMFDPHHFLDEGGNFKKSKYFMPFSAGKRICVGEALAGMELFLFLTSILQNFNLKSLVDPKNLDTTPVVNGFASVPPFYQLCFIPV

Compound CC(C)Oc1cc(F)ccc1-c1ccnc(NC(=O)Nc2cccc(C(=O)N3CCN(C)CC3)c2)c1 has an IC50 [1] of 1.18 µM, an IC50 [2] of 7.94 µM and a half-life at 100 µM [3] greater than 4.82 h. It also gave an inhibition at 10 µM [4] of 12.5%, an inhibition at 10 µM [5] of 15.9% and an inhibition at 10 µM [6] of 5.2%. For the same compound, the AUC(0-inf) [7] was 407 ng·h/mL, the Vd [8] was 1.65 L/kg and the Vd [9] was 5.54 L/kg. For the same compound, the bioavailability [10] was 14.7%, the MRT inf [11] was 2.08 h and the Activity [12] was “Active”. The inhibition [13] was “Active”, the Activity [14] was “Active” and the Activity [15] was “Non-toxic”. The Activity [16] was “Non-toxic”, the Activity [17] was “Non-toxic” and the Activity [18] was “Active”. The Activity [19] was “Active”.
